A short description of the data set: activity coefficient (dimensionless); of the first substance listed, at infinite dilution; xn = mol fraction of the nth substance listed. The note with it: 101.33 kPa, Liquid, Chromatography, x1 = 0.

The structures appear in SMILES notation. ± gives the expanded uncertainty stated by the source.

`CC(C)=O` [acetone] + CCCC[P+](CCCC)(CCCC)CCCC.O=S(=O)([N-]S(=O)(=O)C(F)(F)F)C(F)(F)F: the activity coefficient (358.15 K) came to 0.503 ± 0.038; the activity coefficient (368.15 K) was 0.524 ± 0.039; the activity coefficient (378.15 K) worked out at 0.545 ± 0.04; the activity coefficient (388.15 K) worked out at 0.567 ± 0.041; the activity coefficient (398.15 K) came out at 0.587 ± 0.042; the activity coefficient (408.15 K) was found to be 0.607 ± 0.042.

On to `CCOCC` [diethyl ether] + CCCC[P+](CCCC)(CCCC)CCCC.O=S(=O)([N-]S(=O)(=O)C(F)(F)F)C(F)(F)F, for which the activity coefficient (358.15 K) was 1.65 ± 0.11; the activity coefficient (368.15 K) is 1.7 ± 0.11; the activity coefficient (378.15 K) came to 1.76 ± 0.12; the activity coefficient (388.15 K) was 1.8 ± 0.12; the activity coefficient (398.15 K) came out at 1.86 ± 0.13; the activity coefficient (408.15 K) worked out at 1.91 ± 0.13.

Regarding `CCCC=O` [butanal] + CCCC[P+](CCCC)(CCCC)CCCC.O=S(=O)([N-]S(=O)(=O)C(F)(F)F)C(F)(F)F, the activity coefficient was 0.669 ± 0.045 (358.15 K); 0.699 ± 0.047 (368.15 K); 0.729 ± 0.048 (378.15 K); 0.758 ± 0.05 (388.15 K); 0.787 ± 0.051 (398.15 K); 0.817 ± 0.053 (408.15 K).

For the molecule `CC(C)O` [propan-2-ol] + CCCC[P+](CCCC)(CCCC)CCCC.O=S(=O)([N-]S(=O)(=O)C(F)(F)F)C(F)(F)F, the activity coefficient runs as follows: (358.15 K) 1.47 ± 0.1; (368.15 K) 1.42 ± 0.09; (378.15 K) 1.37 ± 0.09; (388.15 K) 1.33 ± 0.09; (398.15 K) 1.29 ± 0.08; (408.15 K) 1.26 ± 0.08.

With `C1=CCCCC1` [cyclohexene] + CCCC[P+](CCCC)(CCCC)CCCC.O=S(=O)([N-]S(=O)(=O)C(F)(F)F)C(F)(F)F, the activity coefficient came to 2.24 ± 0.15 (358.15 K); 2.27 ± 0.15 (368.15 K); 2.29 ± 0.16 (378.15 K); 2.32 ± 0.16 (388.15 K); 2.34 ± 0.16 (398.15 K); 2.37 ± 0.16 (408.15 K).

In the case of `CCCC(C)=O` [pentan-2-one] + CCCC[P+](CCCC)(CCCC)CCCC.O=S(=O)([N-]S(=O)(=O)C(F)(F)F)C(F)(F)F, the activity coefficient by setting is: (358.15 K) 0.62 ± 0.043; (368.15 K) 0.651 ± 0.045; (378.15 K) 0.682 ± 0.046; (388.15 K) 0.714 ± 0.048; (398.15 K) 0.744 ± 0.049; (408.15 K) 0.774 ± 0.051.

On to `CCC(C)O` (centres undefined) [butan-2-ol] + CCCC[P+](CCCC)(CCCC)CCCC.O=S(=O)([N-]S(=O)(=O)C(F)(F)F)C(F)(F)F, for which the activity coefficient amounted to 1.53 ± 0.1 (358.15 K); 1.49 ± 0.1 (368.15 K); 1.46 ± 0.1 (378.15 K); 1.43 ± 0.09 (388.15 K); 1.4 ± 0.09 (398.15 K); 1.37 ± 0.09 (408.15 K).

Take `CCOC(C)(C)C` [2-ethoxy-2-methylpropane] + CCCC[P+](CCCC)(CCCC)CCCC.O=S(=O)([N-]S(=O)(=O)C(F)(F)F)C(F)(F)F: the activity coefficient (358.15 K) came out at 2.72 ± 0.19; the activity coefficient (368.15 K) was 2.78 ± 0.19; the activity coefficient (378.15 K) was determined as 2.84 ± 0.19; the activity coefficient (388.15 K) was found to be 2.91 ± 0.2; the activity coefficient (398.15 K) turned out to be 2.96 ± 0.2; the activity coefficient (408.15 K) is 3.02 ± 0.21.

Turning to `C=CCCCCCCCC` [1-decene] + CCCC[P+](CCCC)(CCCC)CCCC.O=S(=O)([N-]S(=O)(=O)C(F)(F)F)C(F)(F)F, the activity coefficient was found to be 7.54 ± 0.51 (358.15 K); 7.48 ± 0.51 (368.15 K); 7.41 ± 0.51 (378.15 K); 7.36 ± 0.5 (388.15 K); 7.3 ± 0.5 (398.15 K); 7.25 ± 0.49 (408.15 K).

For `C#CCCCC` [1-hexyne] + CCCC[P+](CCCC)(CCCC)CCCC.O=S(=O)([N-]S(=O)(=O)C(F)(F)F)C(F)(F)F, the activity coefficient amounted to 1.88 ± 0.13 (358.15 K); 1.94 ± 0.13 (368.15 K); 2 ± 0.14 (378.15 K); 2.06 ± 0.14 (388.15 K); 2.11 ± 0.14 (398.15 K); 2.17 ± 0.15 (408.15 K).

`CCC(C)(C)C` [2,2-dimethylbutane] + CCCC[P+](CCCC)(CCCC)CCCC.O=S(=O)([N-]S(=O)(=O)C(F)(F)F)C(F)(F)F: the activity coefficient (358.15 K) worked out at 3.93 ± 0.27; the activity coefficient (368.15 K) is 3.98 ± 0.27; the activity coefficient (378.15 K) came to 4.01 ± 0.27; the activity coefficient (388.15 K) was 4.05 ± 0.28; the activity coefficient (398.15 K) is 4.08 ± 0.28; the activity coefficient (408.15 K) was determined as 4.12 ± 0.28.

Consider `CCCC(=O)OC` [methyl butanoate] + CCCC[P+](CCCC)(CCCC)CCCC.O=S(=O)([N-]S(=O)(=O)C(F)(F)F)C(F)(F)F, for which the activity coefficient is 0.946 ± 0.06 (358.15 K); 0.989 ± 0.062 (368.15 K); 1.03 ± 0.06 (378.15 K); 1.08 ± 0.07 (388.15 K); 1.12 ± 0.07 (398.15 K); 1.17 ± 0.07 (408.15 K).

With `CCCCCC` [hexane] + CCCC[P+](CCCC)(CCCC)CCCC.O=S(=O)([N-]S(=O)(=O)C(F)(F)F)C(F)(F)F, the activity coefficient (358.15 K) came out at 4.39 ± 0.3; the activity coefficient (368.15 K) worked out at 4.41 ± 0.3; the activity coefficient (378.15 K) is 4.44 ± 0.3; the activity coefficient (388.15 K) was found to be 4.46 ± 0.3; the activity coefficient (398.15 K) amounted to 4.49 ± 0.31; the activity coefficient (408.15 K) was determined as 4.51 ± 0.31.

Take `c1ccsc1` [thiophene] + CCCC[P+](CCCC)(CCCC)CCCC.O=S(=O)([N-]S(=O)(=O)C(F)(F)F)C(F)(F)F: the activity coefficient (358.15 K) was 0.782 ± 0.051; the activity coefficient (368.15 K) amounted to 0.812 ± 0.053; the activity coefficient (378.15 K) was 0.842 ± 0.054; the activity coefficient (388.15 K) worked out at 0.872 ± 0.056; the activity coefficient (398.15 K) was determined as 0.9 ± 0.057; the activity coefficient (408.15 K) amounted to 0.929 ± 0.059.

Take `CCCCCCCC` [octane] + CCCC[P+](CCCC)(CCCC)CCCC.O=S(=O)([N-]S(=O)(=O)C(F)(F)F)C(F)(F)F: the activity coefficient runs as follows: (358.15 K) 6.69 ± 0.46; (368.15 K) 6.62 ± 0.45; (378.15 K) 6.56 ± 0.45; (388.15 K) 6.5 ± 0.44; (398.15 K) 6.44 ± 0.44; (408.15 K) 6.39 ± 0.44.

On to `C1COCCO1` [1,4-dioxane] + CCCC[P+](CCCC)(CCCC)CCCC.O=S(=O)([N-]S(=O)(=O)C(F)(F)F)C(F)(F)F, for which the activity coefficient is 0.795 ± 0.052 (358.15 K); 0.825 ± 0.053 (368.15 K); 0.853 ± 0.055 (378.15 K); 0.884 ± 0.056 (388.15 K); 0.911 ± 0.058 (398.15 K); 0.941 ± 0.059 (408.15 K).

As to `CCCCCO` [pentan-1-ol] + CCCC[P+](CCCC)(CCCC)CCCC.O=S(=O)([N-]S(=O)(=O)C(F)(F)F)C(F)(F)F, the activity coefficient is 1.81 ± 0.12 (358.15 K); 1.76 ± 0.12 (368.15 K); 1.71 ± 0.11 (378.15 K); 1.67 ± 0.11 (388.15 K); 1.63 ± 0.11 (398.15 K); 1.59 ± 0.11 (408.15 K).

As to `CC(C)(C)O` [2-methylpropan-2-ol] + CCCC[P+](CCCC)(CCCC)CCCC.O=S(=O)([N-]S(=O)(=O)C(F)(F)F)C(F)(F)F, the activity coefficient by setting is: (358.15 K) 1.41 ± 0.09; (368.15 K) 1.4 ± 0.09; (378.15 K) 1.38 ± 0.09; (388.15 K) 1.37 ± 0.09; (398.15 K) 1.36 ± 0.09; (408.15 K) 1.35 ± 0.09.

Take `CC#N` [acetonitrile] + CCCC[P+](CCCC)(CCCC)CCCC.O=S(=O)([N-]S(=O)(=O)C(F)(F)F)C(F)(F)F: the activity coefficient runs as follows: (358.15 K) 0.602 ± 0.042; (368.15 K) 0.613 ± 0.043; (378.15 K) 0.625 ± 0.043; (388.15 K) 0.635 ± 0.044; (398.15 K) 0.645 ± 0.044; (408.15 K) 0.655 ± 0.045.

Consider `CCCO` [propan-1-ol] + CCCC[P+](CCCC)(CCCC)CCCC.O=S(=O)([N-]S(=O)(=O)C(F)(F)F)C(F)(F)F, for which the activity coefficient (358.15 K) came out at 1.53 ± 0.1; the activity coefficient (368.15 K) came out at 1.47 ± 0.1; the activity coefficient (378.15 K) was determined as 1.42 ± 0.09; the activity coefficient (388.15 K) turned out to be 1.37 ± 0.09; the activity coefficient (398.15 K) is 1.32 ± 0.09; the activity coefficient (408.15 K) amounted to 1.28 ± 0.08.

`CCCOCCC` [dipropyl ether] + CCCC[P+](CCCC)(CCCC)CCCC.O=S(=O)([N-]S(=O)(=O)C(F)(F)F)C(F)(F)F: the activity coefficient reads like this: (358.15 K) 2.73 ± 0.19; (368.15 K) 2.78 ± 0.19; (378.15 K) 2.83 ± 0.19; (388.15 K) 2.88 ± 0.2; (398.15 K) 2.93 ± 0.2; (408.15 K) 2.98 ± 0.2.

Take `C=Cc1ccccc1` [styrene] + CCCC[P+](CCCC)(CCCC)CCCC.O=S(=O)([N-]S(=O)(=O)C(F)(F)F)C(F)(F)F: the activity coefficient by setting is: (358.15 K) 1.01 ± 0.06; (368.15 K) 1.05 ± 0.07; (378.15 K) 1.1 ± 0.07; (388.15 K) 1.14 ± 0.07; (398.15 K) 1.18 ± 0.08; (408.15 K) 1.23 ± 0.08.

In the case of `CCCc1ccccc1` [propylbenzene] + CCCC[P+](CCCC)(CCCC)CCCC.O=S(=O)([N-]S(=O)(=O)C(F)(F)F)C(F)(F)F, the activity coefficient (358.15 K) turned out to be 1.88 ± 0.13; the activity coefficient (368.15 K) was 1.93 ± 0.13; the activity coefficient (378.15 K) was determined as 1.98 ± 0.13; the activity coefficient (388.15 K) is 2.03 ± 0.14; the activity coefficient (398.15 K) came out at 2.07 ± 0.14; the activity coefficient (408.15 K) was 2.12 ± 0.14.

As for `Cc1cccc(C)c1` [1,3-dimethylbenzene] + CCCC[P+](CCCC)(CCCC)CCCC.O=S(=O)([N-]S(=O)(=O)C(F)(F)F)C(F)(F)F, the activity coefficient runs as follows: (358.15 K) 1.53 ± 0.1; (368.15 K) 1.58 ± 0.1; (378.15 K) 1.63 ± 0.11; (388.15 K) 1.68 ± 0.11; (398.15 K) 1.72 ± 0.12; (408.15 K) 1.77 ± 0.12.
